The values that follow are results of earlier work, collected in patent US20050019354A1, “Topical benfotiamine treatments” (priority 2003, published 2005).

One data set addresses T1, transketolase (Homo sapiens, UniProt P29401).
T1 sequence (P29401 1-623): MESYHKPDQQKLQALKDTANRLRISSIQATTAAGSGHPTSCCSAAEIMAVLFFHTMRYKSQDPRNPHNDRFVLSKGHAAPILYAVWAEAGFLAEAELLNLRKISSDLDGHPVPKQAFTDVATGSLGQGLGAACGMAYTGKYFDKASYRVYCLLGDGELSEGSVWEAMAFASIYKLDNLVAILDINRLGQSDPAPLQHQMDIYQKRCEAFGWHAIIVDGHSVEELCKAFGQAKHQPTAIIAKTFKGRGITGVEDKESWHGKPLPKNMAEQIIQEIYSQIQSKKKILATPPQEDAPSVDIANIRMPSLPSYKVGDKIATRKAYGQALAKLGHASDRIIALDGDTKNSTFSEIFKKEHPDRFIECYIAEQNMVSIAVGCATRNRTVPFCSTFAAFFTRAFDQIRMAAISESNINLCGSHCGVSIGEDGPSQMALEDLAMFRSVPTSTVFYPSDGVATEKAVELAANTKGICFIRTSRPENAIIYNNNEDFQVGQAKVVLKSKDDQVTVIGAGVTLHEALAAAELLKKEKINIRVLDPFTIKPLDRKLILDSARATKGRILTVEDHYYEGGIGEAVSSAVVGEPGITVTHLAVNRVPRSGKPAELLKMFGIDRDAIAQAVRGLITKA

Data set [1] concerns retinopathy in diabetic rats.

Each structure is given as a SMILES string.

Take `C/C(=C(\CCOP(=O)(O)O)SC(=O)c1ccccc1)N(C=O)Cc1cnc(C)nc1N` [Benfotiamine, S-Benzoylthiamine-O-Monophosphate]: the “increase of transketolase activity” value on transketolase is 300%. In addition, the effect on retinopathy result in data set [1] is listed as “prevented retinopathy”.
